# Results: patent US8455534B2, “Estrogen receptor modulators and uses thereof” (Aragon Pharmaceuticals, Inc., priority 2010, dated 2013)
# Tests used:
# ER-α = target: T1, ER-α (Homo sapiens, UniProt P03372); assay: Breast Cancer Cell ER-α In Cell Western Assay (SP1); format: cell-based; conditions: MCF-7 cells, SP1 antibody, 4 or 24 hr post compound addition; for Emax: MCF7, read-out: ER-α In Cell Western Assay (SP1) Max Response; for DC50: read-out: ER-α In Cell Western Assay (SP1) IC50
# T1 sequence (P03372 1-595): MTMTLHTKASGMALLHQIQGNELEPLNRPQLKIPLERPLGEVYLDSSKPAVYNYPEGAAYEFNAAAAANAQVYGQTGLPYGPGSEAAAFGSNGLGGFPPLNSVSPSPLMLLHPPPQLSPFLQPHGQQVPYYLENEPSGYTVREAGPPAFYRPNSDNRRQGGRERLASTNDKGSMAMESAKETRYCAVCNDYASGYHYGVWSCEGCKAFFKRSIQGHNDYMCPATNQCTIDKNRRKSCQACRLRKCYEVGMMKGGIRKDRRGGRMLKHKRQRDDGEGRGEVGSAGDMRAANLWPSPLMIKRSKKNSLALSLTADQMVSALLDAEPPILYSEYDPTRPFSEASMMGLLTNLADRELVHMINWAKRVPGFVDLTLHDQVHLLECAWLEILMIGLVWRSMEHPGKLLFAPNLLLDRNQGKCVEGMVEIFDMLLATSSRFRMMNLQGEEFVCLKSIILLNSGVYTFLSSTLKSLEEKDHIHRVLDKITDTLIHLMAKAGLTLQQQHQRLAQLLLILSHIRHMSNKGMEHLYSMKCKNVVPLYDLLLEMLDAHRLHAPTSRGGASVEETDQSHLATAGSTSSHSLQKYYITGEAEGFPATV
# Procedure: MCF-7 cells were adjusted to a concentration of 200,000 cells per mL in RPMI containing 10% charcoal-stripped FBS and 20 mM HEPES. 16 microliters of the cell suspension (3200 cells) was added to each well of a poly-D-lysine 384 well plate, and the cells were incubated overnight to allow the cells to adhere. The following day an eleven point, serial semilog dilution of each compound was added to the cells in 16 μL at a final concentration ranging from 0.3-0.000003 μM. At 4 or 24 hr post compound addition, the cells were fixed (10% formalin in PBS) for 20 minutes. Cells were permeablized in PBS 0.1% Triton and blocked with LICOR blocking buffer (50 μL1/well, 90′). The wells were then incubated overnight at 4° C. with SP1 rabbit monoclonal Ab (Thermo Scientific) diluted 1:1000 in LICOR blocking buffer/0.1% Tween-20. Wells which were treated with blocking buffer with Tween but no antibody were used as a background control. Wells were washed with 0.1% Tween-20/PBS and then incubated in goat anti-rabbit IRDye™ 800CW (LICOR Inc.; 1:1000) and DRAQ5 DNA dye (1:2000 for 2 mM stock) diluted in LICOR blocking buffer containing 0.1% Tween-20 and 0.01% SDS for 60 minutes. Cells were washed (50 μl/well, 5′ each) in 0.1% Tween-20/PBS. Plates were scanned on a LICOR Odyssey infrared imaging system. Integrated intensities in the 800 nm channel and 700 nm channel were measured to determine levels of ER and DNA respectively. Percent ER levels were determined as follows: (Integrated intensity 800 nm sample/integrated intensity 700 nm sample)/(Integrated intensity 800 nm untreated cells/integrated intensity 700 nm untreated cells)×100=% ER levels.
# MCF-7 cells = assay: Breast Cancer Cell Viability Assay (MCF-7, CellTiter-Glo); format: cell-based; conditions: 5 days' compound exposure; for IC50: Homo sapiens, MCF7, 120 h
# Procedure: MCF-7 cells were adjusted to a concentration of 20,000 cells per mL in RPMI containing 10% FBS and 20 mM HEPES. 16 microliters of the cell suspension (320 cells) was added to each well of a 384 well plate, and the cells were incubated overnight to allow the cells to adhere. The following day an eleven point, serial semilog dilution of each compound was added to the cells in 16 μL at a final concentration ranging from 0.3-0.000003 μM. After 5 days' compound exposure, 16 μL of CellTiter-GLo (Promega, Madison Wis.) was added to the cells the relative luminescence units (RLUs) of each well was determined CellTiter-Glo added to 32 μL of medium without cells was used to obtain a background value. The Percent viability of each sample was determined as follows: (RLU sample-RLU background/RLU untreated cells-RLU background)×100=% viability.
Compound,Emax (ER-α),DC50 (ER-α),IC50 (MCF-7 cells),MCF7 Viability Assay Max Response (MCF-7 cells)
"CC(C)C/C(=C(/c1ccc(/C=C/C(=O)O)cc1)c1ccc2[nH]ncc2c1)c1ccc(F)cc1Cl [Compound 63, (E)-3-(4-((E)-2-(2-Chloro-4-fluorophenyl)-1-(1H-indazol-5-yl)-4-methylpent-1-en-1-yl)phenyl)acrylic acid]",≥ 40%,≤ 100 nM,≤ 100 nM,++ (++ = a single % value ≧ 40%)
"CC/C(=C(/c1ccc(/C=C/C(=O)O)cc1)c1ccc2[nH]nc(F)c2c1)c1ccc(F)cc1Cl [Compound 88, (E)-3-(4-((E)-2-(2-Chloro-4-fluorophenyl)-1-(3-fluoro-1H-indazol-5-yl)but-1-en-1-yl)phenyl)acrylic acid]",≥ 40%,≤ 100 nM,≤ 100 nM,++ (++ = a single % value ≧ 40%)
"O=C(O)/C=C/c1ccc(/C(=C(/CCF)c2ccccc2)c2ccc3[nH]ncc3c2F)cc1 [Compound 79, (E)-3-(4-((E)-4-Fluoro-1-(4-fluoro-1H-indazol-5-yl)-2-phenylbut-1-en-1-yl)phenyl)acrylic acid]",≥ 40%,≤ 100 nM,≤ 100 nM,++ (++ = a single % value ≧ 40%)
"CC/C(=C(/c1ccc(/C=C/C(=O)O)cc1)c1ccc2[nH]ncc2c1)c1ccc(Cl)cc1C(F)(F)F [Compound 114, (E)-3-(4-((E)-2-(4-Chloro-2-(trifluoromethyl)phenyl)-1-(1H-indazol-5-yl)but-1-en-1-yl)phenyl)acrylic acid]",≥ 40%,≤ 100 nM,≤ 100 nM,++ (++ = a single % value ≧ 40%)

# Second part, led by results:
Emax (ER-α),DC50 (ER-α),IC50 (MCF-7 cells),Compound,MCF7 Viability Assay Max Response (MCF-7 cells)
≥ 40%,≤ 100 nM,≤ 100 nM,"CC/C(=C(/c1ccc(/C=C/C(=O)O)cc1)c1ccc2[nH]ncc2c1)c1cccc(C)c1 [Compound 10, (E)-3-(4-((E)-1-(1H-Indazol-5-yl)-2-(m-tolyl)but-1-en-1-yl)phenyl)acrylic acid]",++ (++ = a single % value ≧ 40%)
≥ 40%,≤ 100 nM,≤ 100 nM,"O=C(O)/C=C/c1ccc(/C(=C(\c2ccc(F)cc2Cl)C2CCC2)c2ccc3[nH]nc(F)c3c2)cc1 [Compound 89, (E)-3-(4-((E)-2-(2-Chloro-4-fluorophenyl)-2-cyclobutyl-1-(3-fluoro-1H-indazol-5-yl)vinyl)phenyl)acrylic acid]",++ (++ = a single % value ≧ 40%)
≥ 40%,≤ 100 nM,≤ 100 nM,"O=C(O)/C=C/c1ccc(/C(=C(\c2ccccc2)C(F)F)c2ccc3[nH]ncc3c2)cc1 [Compound 64, (E)-3-(4-((Z)-3,3-Difluoro-1-(1H-indazol-5-yl)-2-phenylprop-1-en-1-yl)phenyl)acrylic acid]",++ (++ = a single % value ≧ 40%)
≥ 40%,≤ 100 nM,≤ 100 nM,"O=C(O)/C=C/c1ccc(/C(=C(/CCF)c2ccccc2)c2ccc3[nH]ncc3c2)cc1 [Compound 66, (E)-3-(4-((E)-4-Fluoro-1-(1H-indazol-5-yl)-2-phenylbut-1-en-1-yl)phenyl)acrylic acid]",++ (++ = a single % value ≧ 40%)
≥ 40%,≤ 100 nM,≤ 100 nM,"CC/C(=C(/c1ccc(/C=C/C(=O)O)cc1)c1cc(F)c2[nH]ncc2c1)c1ccc(F)cc1Cl [Compound 65, (E)-3-(4-((E)-2-(2-Chloro-4-fluorophenyl)-1-(7-fluoro-1H-indazol-5-yl)but-1-en-1-yl)phenyl)acrylic acid]",++ (++ = a single % value ≧ 40%)
≥ 40%,≤ 100 nM,≤ 100 nM,"O=C(O)/C=C/c1ccc(/C(=C(\c2ccc(Cl)cc2Cl)C2CC2)c2ccc3[nH]ncc3c2F)cc1 [Compound 123, (E)-3-(4-((E)-2-Cyclopropyl-2-(2,4-dichlorophenyl)-1-(4-fluoro-1H-indazol-5-yl)vinyl)phenyl)acrylic acid]",++ (++ = a single % value ≧ 40%)
